{"source": "patent US20050059646A1", "about": "“Use of 4-androstene-3,6,17-trione to elevate testosterone levels and the testosterone/estrogen ratio in males” (Proviant Technology Inc., priority 2003, published 2005)", "key": {"male subjects": {"tested_on": "male subjects", "experiment": "Open label study: 300 mg a-trione bid for three weeks, endocrine markers in resting AM blood draws", "format": "in vivo, human", "design": "Free Testosterone: unit not given here", "conditions": "for Total Testosterone: 300 mg bid oral, six male subjects, Week 0 baseline 443.67; for Estradiol / Sex Hormone Binding Globulin (SHBG) / Dihydrotestosterone / Free Testosterone / T/E Ratio: 300 mg bid; for Estradiol: Week 0 baseline 16.5; for Sex Hormone Binding Globulin (SHBG): Week 0 baseline 21.83; for Dihydrotestosterone: Week 0 baseline 33.33; for Free Testosterone: Week 0 baseline 126.67; for T/E Ratio: Week 0 baseline 269/1", "experimental": "Six male subjects, aged 32-40 years of age, were prescreened via a medical doctor for endocrinological abnormalities. The subjects' physical characteristics were: height 177.38+/−[…] cm, weight 88.8+/−13.65 kg, body fat percentage 14.9+/−3.5%. Subjects ingested 300 mg a-trione bid for three weeks as part of an open label design. Resting AM blood draws were taken at 0, 1, 2, and 3 weeks of supplementation. Table 1 indicates the changes in endocrine markers over the time evaluated. Results were analyzed using a Repeated Measures-ANOVA design with paired samples t-tests as appropriate. […] Therefore, a-trione can raise the T/E ratio while leaving estradiol in the safe physiological range."}, "aromatase enzyme": {"target": "T1, aromatase enzyme (Homo sapiens, UniProt P11511)", "T1 sequence (P11511 1-503)": "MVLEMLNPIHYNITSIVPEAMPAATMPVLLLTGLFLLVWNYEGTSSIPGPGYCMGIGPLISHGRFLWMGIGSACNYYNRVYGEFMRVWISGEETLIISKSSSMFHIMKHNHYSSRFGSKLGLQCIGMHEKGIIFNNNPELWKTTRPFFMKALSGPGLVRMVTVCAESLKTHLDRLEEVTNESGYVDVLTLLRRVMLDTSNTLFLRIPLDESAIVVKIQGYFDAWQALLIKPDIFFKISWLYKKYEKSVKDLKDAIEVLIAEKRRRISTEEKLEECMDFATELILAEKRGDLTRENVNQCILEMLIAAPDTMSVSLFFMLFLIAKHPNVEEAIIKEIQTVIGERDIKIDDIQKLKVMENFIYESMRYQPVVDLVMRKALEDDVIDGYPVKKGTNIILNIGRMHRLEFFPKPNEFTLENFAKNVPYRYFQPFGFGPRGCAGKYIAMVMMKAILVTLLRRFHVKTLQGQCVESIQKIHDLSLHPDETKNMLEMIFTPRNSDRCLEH", "conditions": "in-vitro; cited from earlier work"}, "[1]": {"conditions": "300 mg bid for three weeks, change over the time evaluated"}}, "data": [{"smiles": "C[C@]12CCC(=O)C=C1C(=O)C[C@@H]1[C@@H]2CC[C@]2(C)C(=O)CC[C@@H]12", "note": "[a-trione, 4-androstene-3,6,17-trione]", "values": [{"measurement": "change in estrogen", "setting": "male subjects; [1]", "value": "−11", "unit": "%"}, {"measurement": "increase in testosterone levels", "setting": "male subjects; [1]", "value": "+88%"}, {"measurement": "Total Testosterone", "setting": "male subjects; Week 1", "value": 701.17, "unit": "ng/dL"}, {"measurement": "Estradiol", "setting": "male subjects; Week 1", "value": 16.5, "unit": "pg/mL"}, {"measurement": "Sex Hormone Binding Globulin (SHBG)", "setting": "male subjects; Week 1", "value": 20.5, "unit": "nmol/L"}, {"measurement": "Dihydrotestosterone", "setting": "male subjects; Week 1", "value": 39.83, "unit": "ng/dL"}, {"measurement": "Free Testosterone", "setting": "male subjects; Week 1", "value": 216.67}, {"measurement": "T/E Ratio", "setting": "male subjects; Week 1", "value": "425/1"}, {"measurement": "Total Testosterone", "setting": "male subjects; Week 2", "value": 752.17, "unit": "ng/dL"}, {"measurement": "Estradiol", "setting": "male subjects; Week 2", "value": 14.8, "unit": "pg/mL"}, {"measurement": "Sex Hormone Binding Globulin (SHBG)", "setting": "male subjects; Week 2", "value": 19.5, "unit": "nmol/L"}, {"measurement": "Dihydrotestosterone", "setting": "male subjects; Week 2", "value": 45.83, "unit": "ng/dL"}, {"measurement": "Free Testosterone", "setting": "male subjects; Week 2", "value": 252.33}, {"measurement": "T/E Ratio", "setting": "male subjects; Week 2", "value": "508/1"}, {"measurement": "Total Testosterone", "setting": "male subjects; Week 3", "value": 835.33, "unit": "ng/dL"}, {"measurement": "Estradiol", "setting": "male subjects; Week 3", "value": 14.67, "unit": "pg/mL"}, {"measurement": "Sex Hormone Binding Globulin (SHBG)", "setting": "male subjects; Week 3", "value": 18.83, "unit": "nmol/L"}, {"measurement": "Dihydrotestosterone", "setting": "male subjects; Week 3", "value": 47.5, "unit": "ng/dL"}, {"measurement": "Free Testosterone", "setting": "male subjects; Week 3", "value": 285.67}, {"measurement": "T/E Ratio", "setting": "male subjects; Week 3", "value": "569/1"}, {"measurement": "effect on estradiol (in words)", "setting": "male subjects; male endocrinological profile", "value": "small, barely significant decrease in estradiol"}, {"measurement": "effect on testosterone (in words)", "setting": "male subjects; male endocrinological profile", "value": "very marked increase of testosterone"}, {"measurement": "aromatase inhibiting activity", "setting": "aromatase enzyme", "value": "has been shown to have aromatase inhibiting activity in-vitro"}]}]}
